Measured values as given in PMC13028883 (Pharmaceuticals, 2026).

Assay: Pharmacokinetics of anthraquinones in plasma of cholestatic rats after oral DH, DH+MX or DHXSD
Assay type: in vivo, rat
Conditions: oral DH 1.2 g/kg, mean ± SD, n = 6
Description: Cholestasis was established in rats through a single oral dose of ANIT (60 mg/kg in olive oil). […] Sequential blood samples were obtained at 5, 15, 30 min, and 1, 2, 4, 6, 8, 12, 24, and 36 h after administration. Plasma was separated by centrifugation and deproteinized by adding a 3:1 (v/v) ratio of acetonitrile containing 5 ng/mL IS1. Ultra-performance liquid chromatography–tandem mass spectrometry analysis was performed on the supernatants following a centrifugation, employing the described analytical approach [29].
Pharmacokinetic parameters were calculated using Drug And Statistics software (version 3.0). Intergroup comparisons were performed by one-way ANOVA followed by Tukey’s post hoc test for multiple comparisons. A p-value < 0.05 was considered statistically significant.

For `O=C1c2cccc(O)c2C(=O)c2c(O)cc(CO)cc21` [Aloe emodin, aloe emodin], the t1/2 was 4.88 ± 0.97 h.
